Source: patent US11220504B2, “Pyrrolo[3,2-d] pyrimidine derivatives for the treatment of viral infections and other diseases” (JANSSEN SCIENCES IRELAND UNLIMITED COMPANY, priority 2012, dated 2022)

How the values were obtained:
human TLR7 = molecular target: T1, human TLR7 (Homo sapiens, UniProt Q9NYK1); assay: TLR7 cellular reporter assay (HEK293, NFκB-luc); format: cell-based; conditions: HEK293 cells transfected with CMV-TLR7 and NFκB-luc, 6 hours incubation; lowest effective concentration
T1 construct: expressed in transfected cells; host or cells: HEK293 cells, transient transfection with CMV-TLR7 plasmid and NFκB-luc plasmid
T1 sequence (Q9NYK1 27-1049): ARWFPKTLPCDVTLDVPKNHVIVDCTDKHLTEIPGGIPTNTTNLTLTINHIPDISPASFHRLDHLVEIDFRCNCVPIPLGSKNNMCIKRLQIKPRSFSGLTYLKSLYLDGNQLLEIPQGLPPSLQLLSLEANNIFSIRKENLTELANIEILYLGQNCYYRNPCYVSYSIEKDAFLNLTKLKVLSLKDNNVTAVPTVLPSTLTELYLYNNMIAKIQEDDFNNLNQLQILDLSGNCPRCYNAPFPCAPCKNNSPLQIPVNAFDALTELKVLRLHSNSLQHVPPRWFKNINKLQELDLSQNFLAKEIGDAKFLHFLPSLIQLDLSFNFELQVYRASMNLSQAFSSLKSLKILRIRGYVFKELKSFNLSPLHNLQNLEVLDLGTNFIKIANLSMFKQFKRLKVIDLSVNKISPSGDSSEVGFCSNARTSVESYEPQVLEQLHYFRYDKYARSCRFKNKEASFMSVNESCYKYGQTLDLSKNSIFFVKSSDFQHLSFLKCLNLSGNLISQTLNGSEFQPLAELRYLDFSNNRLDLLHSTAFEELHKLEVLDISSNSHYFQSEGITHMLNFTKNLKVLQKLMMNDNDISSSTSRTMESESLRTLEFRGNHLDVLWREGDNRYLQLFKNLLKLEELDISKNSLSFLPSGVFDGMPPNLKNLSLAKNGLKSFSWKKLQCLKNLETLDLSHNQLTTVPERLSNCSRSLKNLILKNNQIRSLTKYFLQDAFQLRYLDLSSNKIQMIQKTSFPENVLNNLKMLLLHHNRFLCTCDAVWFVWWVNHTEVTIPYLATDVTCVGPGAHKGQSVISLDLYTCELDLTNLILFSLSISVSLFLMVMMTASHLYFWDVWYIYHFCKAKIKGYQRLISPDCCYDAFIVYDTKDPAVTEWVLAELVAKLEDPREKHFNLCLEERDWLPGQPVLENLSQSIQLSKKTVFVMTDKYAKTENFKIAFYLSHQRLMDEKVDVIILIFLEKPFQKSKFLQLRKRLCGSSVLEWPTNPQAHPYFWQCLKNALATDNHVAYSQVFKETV
Experimental: (§1) The ability of compounds to activate human TLR7 and/or TLR8 was assessed in a cellular reporter assay using HEK293 cells transiently transfected with a TLR7 or TLR8 expression vector and NFκB-luc reporter construct.
(§2) Briefly, HEK293 cells were grown in culture medium (DMEM supplemented with 10% FCS and 2 mM Glutamine). […] Thirty microliters of cells were then dispensed into each well in 384-well plates, where 10 μL of compound in 4% DMSO was already present. Following 6 hours incubation at 37° C., 5% CO2, the luciferase activity was determined by adding 15 μL of Steady Lite Plus substrate (Perkin Elmer) to each well and readout performed on a ViewLux ultraHTS microplate imager (Perkin Elmer). Dose response curves were generated from measurements performed in quadruplicates.

[1] = tested on: interferon-stimulated responsive elements (ISRE); assay: Activation of ISRE promoter elements by conditioned media from PBMC (HEK-ISREluc); format: cell-based, human; conditions: Homo sapiens; conditioned media from PBMC transferred to HEK-ISREluc cells, 24 hours; lowest effective concentration; read-out: PBMC LEC
Experimental: The potential of compounds to induce IFN-I was also evaluated by measuring the activation of interferon-stimulated responsive elements (ISRE) by conditioned media from PBMC. The ISRE element of sequence […] (SEQ. ID NO:1) is highly responsive to the STAT1-STAT2-IRF 9 transcription factor, activated upon binding of IFN-I to their receptor IFNAR (Clontech, PT3372-5W). […] A HEK293 cell line stably transfected with pISRE-Luc (HEK-ISREluc) was established to profile of the conditioned PBMC cell culture media.
Briefly, PBMCs were prepared from buffy coats of at least two donors using a standard Ficoll centrifugation protocol. Isolated PBMCs were resuspended in RPMI medium supplemented with 10% human AB serum and 2×10^5 cells/well were dispensed into 384-well plates containing compounds (70 μL total volume). After overnight incubation, 10 μL of supernatant was transferred to 384-well plates containing 5×10^3 HEK-ISREluc cells/well in 30 μL (plated the day before). Following 24 hours of incubation, activation of the ISRE elements was measured by assaying luciferase activity using 40 μL/well Steady Lite Plus substrate (Perkin Elmer) and measured with ViewLux ultraHTS microplate imager (Perkin Elmer). The stimulating activity of each compound on the HEK-ISREluc cells was reported as LEC value, defined as the compound concentration applied to the PBMCs resulting in a luciferase activity at least two fold above the standard deviation of the assay. The LEC in turn indicates the degree of ISRE activation on transfer of a defined amount of PBMC culture medium. Recombinant interferon α-2a (Roferon-A) was used as a standard control compound.

human TLR8 = molecular target: T2, human TLR8 (Homo sapiens, UniProt Q9NR97); assay: TLR8 cellular reporter assay (HEK293, NFκB-luc); format: cell-based; conditions: HEK293 cells transfected with CMV-TLR8 and NFκB-luc, 6 hours incubation; lowest effective concentration
T2 construct: expressed in transfected cells; host or cells: HEK293 cells, transient transfection with TLR8 plasmid and NFκB-luc plasmid
T2 sequence (Q9NR97 27-1041): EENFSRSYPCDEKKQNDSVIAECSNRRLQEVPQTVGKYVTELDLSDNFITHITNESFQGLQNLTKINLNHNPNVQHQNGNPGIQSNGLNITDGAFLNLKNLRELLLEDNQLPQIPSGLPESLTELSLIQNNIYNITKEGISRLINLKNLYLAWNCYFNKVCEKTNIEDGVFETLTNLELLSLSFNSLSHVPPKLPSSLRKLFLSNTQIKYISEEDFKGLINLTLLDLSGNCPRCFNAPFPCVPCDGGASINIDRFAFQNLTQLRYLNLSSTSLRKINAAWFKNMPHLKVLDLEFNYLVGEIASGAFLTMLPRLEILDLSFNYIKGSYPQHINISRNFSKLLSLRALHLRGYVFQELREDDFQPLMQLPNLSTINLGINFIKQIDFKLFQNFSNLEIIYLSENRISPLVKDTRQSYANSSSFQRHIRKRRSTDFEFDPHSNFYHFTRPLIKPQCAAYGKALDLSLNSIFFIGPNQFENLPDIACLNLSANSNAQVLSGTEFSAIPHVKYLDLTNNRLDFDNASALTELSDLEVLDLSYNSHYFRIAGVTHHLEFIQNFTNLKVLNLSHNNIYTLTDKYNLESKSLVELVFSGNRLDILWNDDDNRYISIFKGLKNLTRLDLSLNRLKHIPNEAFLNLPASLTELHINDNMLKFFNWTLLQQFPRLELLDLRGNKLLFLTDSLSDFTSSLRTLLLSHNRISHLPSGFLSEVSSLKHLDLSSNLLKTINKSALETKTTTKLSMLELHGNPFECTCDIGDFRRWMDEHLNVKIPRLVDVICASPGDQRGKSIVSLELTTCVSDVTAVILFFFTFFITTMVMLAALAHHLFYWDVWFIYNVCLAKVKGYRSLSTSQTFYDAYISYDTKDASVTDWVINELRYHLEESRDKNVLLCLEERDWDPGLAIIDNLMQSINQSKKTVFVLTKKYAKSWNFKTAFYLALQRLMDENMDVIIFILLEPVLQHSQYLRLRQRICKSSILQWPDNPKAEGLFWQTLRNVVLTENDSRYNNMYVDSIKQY
Experimental: as §1, §2

| SMILES | TLR7 LEC (human TLR7) [µM] | minimal effective concentration [1] [µM] | TLR8 LEC (human TLR8) [µM] |
| --- | --- | --- | --- |
| CCCCNc1nc(N)nc2ccn(Cc3ccccc3-c3ccccc3)c12 [Compound 7] | 0.61 | 0.8 | >25 |
| CCCCNc1nc(N)nc2ccn(CCCC)c12 [Compound 8] | 0.49 | 0.15 | 1.7 |
| CCCCNc1nc(N)nc2ccn(CCC)c12 [Compound 9] | 0.53 | 0.22 | 2.1 |
| CCCCNc1nc(N)nc2ccn(CCc3ccccc3)c12 [Compound 11] | 1.5 | 0.56 | 3.5 |
| CCCCNc1nc(N)nc2ccn(Cc3ccccc3Cl)c12 [Compound 13] | 0.80 | 0.89 | >25 |
| CCCC[C@@H](CO)Nc1nc(N)nc2ccn(Cc3cccnn3)c12 [Compound 14] | 0.52 | 0.01 | 6.57 |
| CCC[C@@H](CO)Nc1nc(N)nc2ccn(Cc3cccnn3)c12 [Compound 15] | 5.84 | 0.1 | >25 |
| CCCCNc1nc(N)nc2ccn(Cc3ccc(F)c(Cl)c3)c12 [Compound 16] | 0.89 | 0.6 | >25 |
| CCC[C@@H](CO)Nc1nc(N)nc2ccn(Cc3ccccc3)c12 [Compound 17] | 0.07 | 0.01 | 12.5 |
| CCCCNc1nc(N)nc2ccn(C(C)C)c12 [Compound 19] | 2.5 | 0.62 | 7.06 |
| CCCCNc1nc(N)nc2ccn(Cc3cc(C)on3)c12 [Compound 20] | 0.14 | 0.02 | 1.3 |
| CCC[C@@H](CCO)Nc1nc(N)nc2ccn(Cc3ccccc3)c12 [Compound 21] | 0.009 | 0.0007 | 7.4 |
| CCC[C@@H](CO)Nc1nc(N)nc2ccn(Cc3ccccn3)c12 [Compound 22] | 0.48 | 0.02 | 9.2 |
| CCCNc1nc(N)nc2ccn(Cc3ccccc3)c12 [Compound 23] | 0.83 | 0.27 | >25 |
| CCC[C@@H](CCO)Nc1nc(N)nc2ccn(Cc3ccccn3)c12 [Compound 24] | 0.02 | 0.0007 | 6.47 |
| CCCC[C@@H](CCO)Nc1nc(N)nc2ccn(Cc3ccccn3)c12 [Compound 25] | 0.01 | 0.001 | 2.84 |
| CCC[C@@H](CO)Nc1nc(N)nc2ccn(CC(C)C)c12 [Compound 27] | 0.15 | 0.17 | 0.85 |
| CCCC[C@@H](CCO)Nc1nc(N)nc2ccn(CC(C)C)c12 [Compound 28] | 0.11 | 0.03 | 1.1 |
| CCCCCNc1nc(N)nc2ccn(Cc3ccccc3)c12 [Compound 29] | 0.15 | 0.04 | >25 |
| CCC[C@@H](CCO)Nc1nc(N)nc2ccn(CC(C)C)c12 [Compound 30] | 0.16 | 0.05 | 0.67 |
| CCC[C@H](CO)Nc1nc(N)nc2ccn(Cc3ccccc3)c12 [Compound 31] | 0.22 | 0.16 | >25 |
| CC(C)CNc1nc(N)nc2ccn(Cc3ccccc3)c12 [Compound 32] | 0.91 | 0.52 | >25 |
| CCCC(C)Nc1nc(N)nc2ccn(Cc3ccccc3)c12 (stereo not drawn) [Compound 33] | 0.03 | 0.04 | >25 |
| COCCNc1nc(N)nc2ccn(Cc3ccccc3)c12 [Compound 34] | 0.91 | 0.54 | >25 |
| CCNc1nc(N)nc2ccn(Cc3ccccc3)c12 [Compound 35] | 1.49 | 0.7 | >25 |
| Nc1nc(NCCCO)c2c(ccn2Cc2ccccc2)n1 [Compound 36] | 1.06 | 0.59 | >25 |
| CCCC[C@@H](CCO)Nc1nc(N)nc2ccn(Cc3ccccc3)c12 [Compound 37] | 0.005 | 0.007 | >25 |
| CC[C@H](C)[C@@H](CO)Nc1nc(N)nc2ccn(Cc3ccccc3)c12 [Compound 38] | 0.54 | 0.63 | >25 |
